Laboratory results reported in paper PMC11345841, “Exploring 2-Sulfonylpyrimidine Warheads as Acrylamide Surrogates for Targeted Covalent Inhibition: A BTK Story” (Journal of Medicinal Chemistry, 2024).
Where two headings read alike, the source gives them in different places.

Legend:
Test in all cases: KINOMEscan ScanTK
Type in all cases: binding
FLT3(ITD) = details: for % difference (compound - Ib %Control) / %Control: @1000nM
ROS1 = target: T1, ROS1 (Homo sapiens, UniProt P08922); details: for %Control difference versus reference Ib at 1 µM: read-out: % difference (compound - Ib %Control)
T1 construct: purchased Eurofins DiscoverX KINOMEscan (scanTK)

EGFR(S752-I759del) = target: T2, EGFR(S752-I759del) (Homo sapiens, UniProt P00533, DEL752-759)
T2 construct: purchased Eurofins DiscoverX KINOMEscan (scanTK)
T2 sequence (P00533 with tags, fused parts or gaps DEL752-759 limits assumed): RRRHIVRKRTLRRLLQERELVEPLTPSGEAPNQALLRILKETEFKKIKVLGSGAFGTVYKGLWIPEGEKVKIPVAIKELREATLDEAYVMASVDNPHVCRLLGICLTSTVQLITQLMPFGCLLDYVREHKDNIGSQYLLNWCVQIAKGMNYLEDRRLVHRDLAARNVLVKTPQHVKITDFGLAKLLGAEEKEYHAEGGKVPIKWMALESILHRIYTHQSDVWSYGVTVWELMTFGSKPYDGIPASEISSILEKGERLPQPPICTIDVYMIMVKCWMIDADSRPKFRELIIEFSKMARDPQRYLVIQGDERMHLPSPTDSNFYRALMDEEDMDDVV

PDGFRB = target: T3, PDGFRB (Homo sapiens, UniProt P09619)
T3 construct: purchased Eurofins DiscoverX KINOMEscan (scanTK)

[1] = target: T4, JAK2(JH1domain-catalytic) (Homo sapiens, UniProt O60674)
T4 construct: JAK2(JH1domain-catalytic); purchased Eurofins DiscoverX KINOMEscan (scanTK)
T4 sequence (O60674 849-1132 limits assumed): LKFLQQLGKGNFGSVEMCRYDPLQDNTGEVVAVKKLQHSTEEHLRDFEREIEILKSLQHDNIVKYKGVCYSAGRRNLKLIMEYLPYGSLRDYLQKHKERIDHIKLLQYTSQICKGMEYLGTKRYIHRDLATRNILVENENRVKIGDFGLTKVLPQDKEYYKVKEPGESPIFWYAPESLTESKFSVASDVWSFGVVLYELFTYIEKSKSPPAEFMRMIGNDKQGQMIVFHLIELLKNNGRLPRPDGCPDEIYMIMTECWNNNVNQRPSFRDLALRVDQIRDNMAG

FYN = target: T5, FYN (Homo sapiens, UniProt P06241)
T5 construct: purchased Eurofins DiscoverX KINOMEscan (scanTK)

KIT(D816V) = target: T6, KIT(D816V) (Homo sapiens, UniProt P10721, D816V)
T6 construct: purchased Eurofins DiscoverX KINOMEscan (scanTK)
T6 sequence (P10721 26-976 D816V): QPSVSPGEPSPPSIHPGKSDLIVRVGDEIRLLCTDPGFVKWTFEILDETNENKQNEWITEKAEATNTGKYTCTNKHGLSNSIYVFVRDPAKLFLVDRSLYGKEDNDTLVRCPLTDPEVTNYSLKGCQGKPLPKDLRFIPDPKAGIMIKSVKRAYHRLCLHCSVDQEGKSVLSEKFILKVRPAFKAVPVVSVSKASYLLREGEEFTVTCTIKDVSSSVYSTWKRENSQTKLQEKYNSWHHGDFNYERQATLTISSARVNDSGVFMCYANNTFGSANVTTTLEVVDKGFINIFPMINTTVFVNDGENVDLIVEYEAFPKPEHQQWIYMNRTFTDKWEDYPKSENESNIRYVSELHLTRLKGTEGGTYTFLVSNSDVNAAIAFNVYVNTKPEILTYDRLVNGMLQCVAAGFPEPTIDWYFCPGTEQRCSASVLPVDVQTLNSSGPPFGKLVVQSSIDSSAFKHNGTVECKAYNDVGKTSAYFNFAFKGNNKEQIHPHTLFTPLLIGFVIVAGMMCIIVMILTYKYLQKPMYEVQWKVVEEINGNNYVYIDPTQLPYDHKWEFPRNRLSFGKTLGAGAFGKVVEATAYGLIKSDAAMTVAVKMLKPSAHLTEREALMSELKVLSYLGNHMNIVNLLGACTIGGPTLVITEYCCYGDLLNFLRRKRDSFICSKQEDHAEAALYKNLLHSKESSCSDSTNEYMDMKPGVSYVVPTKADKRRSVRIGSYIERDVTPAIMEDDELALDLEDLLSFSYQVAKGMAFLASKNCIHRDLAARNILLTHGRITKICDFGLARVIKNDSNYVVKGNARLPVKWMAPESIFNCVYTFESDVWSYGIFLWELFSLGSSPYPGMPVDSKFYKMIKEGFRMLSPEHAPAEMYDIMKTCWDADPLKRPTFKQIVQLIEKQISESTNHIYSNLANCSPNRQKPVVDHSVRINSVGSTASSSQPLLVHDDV

FGR = target: T7, FGR (Homo sapiens, UniProt P09769)
T7 construct: purchased Eurofins DiscoverX KINOMEscan (scanTK)

[2] = target: T8, JAK1(JH1domain-catalytic) (Homo sapiens, UniProt P23458)
T8 construct: JAK1(JH1domain-catalytic); purchased Eurofins DiscoverX KINOMEscan (scanTK)
T8 sequence (P23458 875-1154 limits assumed): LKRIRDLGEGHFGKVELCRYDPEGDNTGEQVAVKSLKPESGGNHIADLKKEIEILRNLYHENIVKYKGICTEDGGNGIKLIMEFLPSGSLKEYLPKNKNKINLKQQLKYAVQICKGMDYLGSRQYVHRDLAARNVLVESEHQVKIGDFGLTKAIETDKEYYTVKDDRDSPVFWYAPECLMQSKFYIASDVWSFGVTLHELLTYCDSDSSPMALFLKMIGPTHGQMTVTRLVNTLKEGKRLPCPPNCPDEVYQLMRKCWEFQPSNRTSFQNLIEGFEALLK

ABL2 = target: T9, ABL2 (Homo sapiens, UniProt P42684)
T9 construct: purchased Eurofins DiscoverX KINOMEscan (scanTK)

EGFR(L858R,T790M) = target: T10, EGFR(L858R,T790M) (Homo sapiens, UniProt P00533, L858R/T790M)
T10 construct: purchased Eurofins DiscoverX KINOMEscan (scanTK)
T10 sequence (P00533 25-1210 T790M/L858R): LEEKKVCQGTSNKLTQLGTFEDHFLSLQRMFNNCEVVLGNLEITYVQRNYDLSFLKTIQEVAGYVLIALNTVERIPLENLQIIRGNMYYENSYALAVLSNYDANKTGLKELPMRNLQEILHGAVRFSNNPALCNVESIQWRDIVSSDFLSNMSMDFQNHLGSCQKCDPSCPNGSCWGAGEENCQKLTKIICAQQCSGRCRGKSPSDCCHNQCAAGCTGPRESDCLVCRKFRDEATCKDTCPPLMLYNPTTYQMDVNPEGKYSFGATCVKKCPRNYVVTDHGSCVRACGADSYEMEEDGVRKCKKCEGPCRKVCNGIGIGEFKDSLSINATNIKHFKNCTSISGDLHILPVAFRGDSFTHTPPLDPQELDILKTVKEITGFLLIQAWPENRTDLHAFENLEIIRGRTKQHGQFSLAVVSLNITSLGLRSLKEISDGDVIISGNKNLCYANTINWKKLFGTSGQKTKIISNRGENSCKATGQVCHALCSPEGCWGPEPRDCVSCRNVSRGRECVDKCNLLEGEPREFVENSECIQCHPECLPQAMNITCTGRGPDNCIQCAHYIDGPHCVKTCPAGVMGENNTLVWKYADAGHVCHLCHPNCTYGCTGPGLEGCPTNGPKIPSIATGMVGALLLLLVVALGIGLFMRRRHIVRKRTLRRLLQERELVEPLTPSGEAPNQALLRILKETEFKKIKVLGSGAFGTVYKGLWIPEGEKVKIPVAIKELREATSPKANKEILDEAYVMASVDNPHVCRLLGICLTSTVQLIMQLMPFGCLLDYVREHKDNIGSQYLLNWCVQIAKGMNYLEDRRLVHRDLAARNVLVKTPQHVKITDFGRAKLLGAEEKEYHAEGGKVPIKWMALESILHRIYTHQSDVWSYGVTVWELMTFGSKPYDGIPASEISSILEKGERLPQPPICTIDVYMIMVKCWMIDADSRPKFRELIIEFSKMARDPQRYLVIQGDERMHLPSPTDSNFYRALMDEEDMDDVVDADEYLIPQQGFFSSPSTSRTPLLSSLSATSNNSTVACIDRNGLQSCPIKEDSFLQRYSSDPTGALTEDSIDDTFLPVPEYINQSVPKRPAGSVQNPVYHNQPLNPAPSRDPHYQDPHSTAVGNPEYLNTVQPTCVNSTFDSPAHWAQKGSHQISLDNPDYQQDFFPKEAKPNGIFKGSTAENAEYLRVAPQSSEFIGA

ABL1-phosphorylated = target: T11, ABL1-phosphorylated (Homo sapiens, UniProt P00519)
T11 construct: purchased Eurofins DiscoverX KINOMEscan (scanTK)
T11 sequence (P00519 whole entry): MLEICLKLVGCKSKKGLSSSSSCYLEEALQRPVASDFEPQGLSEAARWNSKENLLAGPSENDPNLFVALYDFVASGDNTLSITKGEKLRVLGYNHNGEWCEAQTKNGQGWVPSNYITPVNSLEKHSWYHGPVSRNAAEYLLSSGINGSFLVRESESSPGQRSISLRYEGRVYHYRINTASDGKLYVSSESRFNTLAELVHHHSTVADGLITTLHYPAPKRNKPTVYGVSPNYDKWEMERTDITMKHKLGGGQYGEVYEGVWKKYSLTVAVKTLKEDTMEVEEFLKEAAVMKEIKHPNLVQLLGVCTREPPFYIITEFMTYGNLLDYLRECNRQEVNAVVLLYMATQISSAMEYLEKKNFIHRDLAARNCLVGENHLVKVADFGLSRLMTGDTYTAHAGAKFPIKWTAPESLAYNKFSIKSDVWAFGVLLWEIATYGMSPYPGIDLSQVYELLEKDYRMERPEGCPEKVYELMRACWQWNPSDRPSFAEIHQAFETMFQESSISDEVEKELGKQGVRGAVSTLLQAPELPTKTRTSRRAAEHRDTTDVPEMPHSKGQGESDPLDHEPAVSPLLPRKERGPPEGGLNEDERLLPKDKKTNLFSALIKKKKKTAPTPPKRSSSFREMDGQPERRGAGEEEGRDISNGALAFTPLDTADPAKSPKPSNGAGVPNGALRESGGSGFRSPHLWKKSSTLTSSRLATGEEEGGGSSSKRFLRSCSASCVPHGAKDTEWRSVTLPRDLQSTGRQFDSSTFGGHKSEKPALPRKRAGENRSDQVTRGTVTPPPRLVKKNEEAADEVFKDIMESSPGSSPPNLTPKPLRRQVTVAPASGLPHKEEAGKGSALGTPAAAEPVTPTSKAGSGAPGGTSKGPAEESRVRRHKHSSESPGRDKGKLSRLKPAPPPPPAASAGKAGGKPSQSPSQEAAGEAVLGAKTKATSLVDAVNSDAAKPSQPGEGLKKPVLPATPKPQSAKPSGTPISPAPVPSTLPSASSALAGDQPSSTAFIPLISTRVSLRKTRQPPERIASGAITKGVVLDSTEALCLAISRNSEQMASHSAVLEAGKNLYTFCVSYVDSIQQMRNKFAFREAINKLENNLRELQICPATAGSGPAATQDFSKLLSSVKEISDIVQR

FGFR2 = target: T12, FGFR2 (Homo sapiens, UniProt P21802)
T12 construct: purchased Eurofins DiscoverX KINOMEscan (scanTK)

YES = target: T13, YES (Homo sapiens, UniProt P07947)
T13 construct: purchased Eurofins DiscoverX KINOMEscan (scanTK)
T13 sequence (P07947 whole entry): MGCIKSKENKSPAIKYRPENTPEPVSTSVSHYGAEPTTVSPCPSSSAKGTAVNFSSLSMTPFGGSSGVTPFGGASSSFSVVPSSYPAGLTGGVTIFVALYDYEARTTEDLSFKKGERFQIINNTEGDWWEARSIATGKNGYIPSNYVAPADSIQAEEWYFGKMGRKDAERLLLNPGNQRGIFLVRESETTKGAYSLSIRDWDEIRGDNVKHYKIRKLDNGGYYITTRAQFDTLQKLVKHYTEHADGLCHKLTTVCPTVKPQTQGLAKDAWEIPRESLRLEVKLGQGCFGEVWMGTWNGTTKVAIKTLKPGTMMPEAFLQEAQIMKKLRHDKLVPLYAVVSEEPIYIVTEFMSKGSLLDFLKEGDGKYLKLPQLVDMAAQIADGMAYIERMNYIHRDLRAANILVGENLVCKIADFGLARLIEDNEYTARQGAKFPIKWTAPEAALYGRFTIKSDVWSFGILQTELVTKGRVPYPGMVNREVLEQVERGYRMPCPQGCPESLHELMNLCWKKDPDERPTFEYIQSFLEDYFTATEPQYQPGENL

EPHA1 = target: T14, EPHA1 (Homo sapiens, UniProt P21709)
T14 construct: purchased Eurofins DiscoverX KINOMEscan (scanTK)
T14 sequence (P21709 26-976): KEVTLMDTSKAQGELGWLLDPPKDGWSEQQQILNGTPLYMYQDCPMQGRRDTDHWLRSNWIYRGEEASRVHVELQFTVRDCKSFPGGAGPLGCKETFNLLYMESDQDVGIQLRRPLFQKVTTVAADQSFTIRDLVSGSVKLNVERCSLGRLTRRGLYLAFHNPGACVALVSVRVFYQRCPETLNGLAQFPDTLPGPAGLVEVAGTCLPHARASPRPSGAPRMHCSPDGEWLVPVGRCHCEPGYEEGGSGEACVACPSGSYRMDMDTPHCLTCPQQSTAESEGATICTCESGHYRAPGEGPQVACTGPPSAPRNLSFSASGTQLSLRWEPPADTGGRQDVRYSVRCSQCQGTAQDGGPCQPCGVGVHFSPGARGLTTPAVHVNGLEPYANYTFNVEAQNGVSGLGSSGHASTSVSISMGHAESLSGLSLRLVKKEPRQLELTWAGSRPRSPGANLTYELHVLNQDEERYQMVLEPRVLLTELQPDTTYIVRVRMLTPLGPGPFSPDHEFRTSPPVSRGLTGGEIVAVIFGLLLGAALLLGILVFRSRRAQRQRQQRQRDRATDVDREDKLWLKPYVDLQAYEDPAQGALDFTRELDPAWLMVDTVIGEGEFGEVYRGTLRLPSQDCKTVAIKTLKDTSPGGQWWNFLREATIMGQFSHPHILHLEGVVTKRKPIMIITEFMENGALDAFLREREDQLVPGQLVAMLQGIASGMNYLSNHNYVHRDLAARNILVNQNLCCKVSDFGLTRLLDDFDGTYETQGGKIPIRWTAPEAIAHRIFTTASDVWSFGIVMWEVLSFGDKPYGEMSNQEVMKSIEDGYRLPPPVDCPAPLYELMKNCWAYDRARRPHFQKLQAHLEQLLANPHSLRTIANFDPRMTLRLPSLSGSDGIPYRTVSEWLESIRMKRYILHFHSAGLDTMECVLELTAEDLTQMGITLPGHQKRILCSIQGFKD

With `CCOC(=O)c1cnc(S(C)(=O)=O)nc1N1CCC[C@@H](n2nc(-c3ccc(Oc4ccccc4)cc3)c3c(N)ncnc32)C1` [Compound 8c, Ethyl (R)-4-(3-(4-Amino-3-(4-phenoxyphenyl)-1H-pyrazolo[3,4-d]pyrimidin-1-yl)piperidin-1-yl)-2-(methylsulfonyl)pyrimidine-5-carboxylate] the “%Control @1000nM” value (FLT3(ITD)) was 100%, the “% difference (compound - Ib %Control)” value (FLT3(ITD)) was 28% and the “%Control” value (FLT3(ITD)) was 100%. The %Control difference versus reference Ib at 1 µM (ROS1; @1000nM) was 3%, the remaining binding at 1 µM (ROS1; @1000nM, read-out: %Control) was 100% and the remaining binding at 1 µM (ROS1; read-out: %Control @1000nM) was 100%. It also gave a difference in %Control versus compound Ib at 1 µM (EGFR(S752-I759del); @1000nM) of 98%, a remaining binding at 1 µM (EGFR(S752-I759del); @1000nM, read-out: %Control) of 100% and a remaining binding at 1 µM (EGFR(S752-I759del); read-out: %Control @1000nM) of 100%. The remaining binding at 1 µM (PDGFRB; @1000nM, read-out: %Control) was 87%, the remaining binding at 1 µM (PDGFRB; read-out: %Control @1000nM) was 87% and the difference in %Control vs compound Ib at 1 µM ([1]; @1000nM) was -17%. For the same molecule, the remaining binding at 1 µM ([1]; @1000nM, read-out: %Control) was 83%, the remaining binding at 1 µM ([1]; read-out: %Control @1000nM) was 83% and the difference in % of control versus compound Ib at 1 µM (FYN; @1000nM) was 30.4%. The remaining binding at 1 µM (FYN; @1000nM, read-out: %Control) was 40%, the remaining binding at 1 µM (FYN; read-out: %Control @1000nM) was 40% and the remaining binding at 1 µM (KIT(D816V); @1000nM, read-out: %Control) was 85%. For the same molecule, the remaining binding at 1 µM (KIT(D816V); read-out: %Control @1000nM) was 85%, the difference in %Control versus compound Ib at 1 µM (FGR; @1000nM) was 13.7% and the remaining binding at 1 µM (FGR; @1000nM, read-out: %Control) was 19%. The remaining binding at 1 µM (FGR; read-out: %Control @1000nM) was 19%, the difference in %Control versus compound Ib at 1 µM ([2]; @1000nM) was 6% and the remaining binding at 1 µM ([2]; @1000nM, read-out: %Control) was 100%. For the same molecule, the remaining binding at 1 µM ([2]; read-out: %Control @1000nM) was 100%, the difference in %Control from reference compound Ib at 1 µM (ABL2; @1000nM) was 57% and the remaining binding at 1 µM (ABL2; @1000nM, read-out: %Control) was 98%. For the same molecule, the remaining binding at 1 µM (ABL2; read-out: %Control @1000nM) was 98%, the difference in % of control versus compound Ib at 1 µM (EGFR(L858R,T790M); @1000nM) was 77% and the remaining binding at 1 µM (EGFR(L858R,T790M); @1000nM, read-out: %Control) was 87%. For the same molecule, the remaining binding at 1 µM (EGFR(L858R,T790M); read-out: %Control @1000nM) was 87%, the difference in %Control from compound Ib at 1 µM (ABL1-phosphorylated; @1000nM) was -3% and the remaining binding at 1 µM (ABL1-phosphorylated; @1000nM, read-out: %Control) was 57%. It also gave a remaining binding at 1 µM (ABL1-phosphorylated; read-out: %Control @1000nM) of 57%, a difference in %Control vs compound Ib at 1 µM (FGFR2; @1000nM) of 41% and a remaining binding at 1 µM (FGFR2; @1000nM, read-out: %Control) of 80%. For the same molecule, the remaining binding at 1 µM (FGFR2; read-out: %Control @1000nM) was 80%, the remaining binding at 1 µM (YES; @1000nM, read-out: %Control) was 25% and the remaining binding at 1 µM (YES; read-out: %Control @1000nM) was 25%. For the same molecule, the difference in %Control versus compound Ib at 1 µM (EPHA1; @1000nM) was 20%, the remaining binding at 1 µM (EPHA1; @1000nM, read-out: %Control) was 92% and the remaining binding at 1 µM (EPHA1; read-out: %Control @1000nM) was 92%.

With `CNC(=O)c1cnc(S(C)(=O)=O)nc1N1CCCC(n2nc(-c3ccc(Oc4ccccc4)cc3)c3c(N)ncnc32)C1` (stereo not drawn) [Compound 8d, 4-(3-(4-Amino-3-(4-phenoxyphenyl)-1H-pyrazolo[3,4-d]pyrimidin-1-yl)piperidin-1-yl)-N-methyl-2-(methylsulfonyl)pyrimidine-5-carboxamide] the “%Control @1000nM” value (FLT3(ITD)) was 94%, the “% difference (compound - Ib %Control)” value (FLT3(ITD)) was 22% and the “%Control” value (FLT3(ITD)) was 94%. It also gave a %Control difference versus reference Ib at 1 µM (ROS1; @1000nM) of 3%, a remaining binding at 1 µM (ROS1; @1000nM, read-out: %Control) of 100% and a remaining binding at 1 µM (ROS1; read-out: %Control @1000nM) of 100%. The difference in %Control versus compound Ib at 1 µM (EGFR(S752-I759del); @1000nM) was 67%, the remaining binding at 1 µM (EGFR(S752-I759del); @1000nM, read-out: %Control) was 69% and the remaining binding at 1 µM (EGFR(S752-I759del); read-out: %Control @1000nM) was 69%. It also gave a remaining binding at 1 µM (PDGFRB; @1000nM, read-out: %Control) of 77%, a remaining binding at 1 µM (PDGFRB; read-out: %Control @1000nM) of 77% and a difference in %Control vs compound Ib at 1 µM ([1]; @1000nM) of -14%. For the same molecule, the remaining binding at 1 µM ([1]; @1000nM, read-out: %Control) was 86%, the remaining binding at 1 µM ([1]; read-out: %Control @1000nM) was 86% and the difference in % of control versus compound Ib at 1 µM (FYN; @1000nM) was 5.4%. It also gave a remaining binding at 1 µM (FYN; @1000nM, read-out: %Control) of 15%, a remaining binding at 1 µM (FYN; read-out: %Control @1000nM) of 15% and a remaining binding at 1 µM (KIT(D816V); @1000nM, read-out: %Control) of 84%. It also gave a remaining binding at 1 µM (KIT(D816V); read-out: %Control @1000nM) of 84%, a difference in %Control versus compound Ib at 1 µM (FGR; @1000nM) of 10.7% and a remaining binding at 1 µM (FGR; @1000nM, read-out: %Control) of 16%. It also gave a remaining binding at 1 µM (FGR; read-out: %Control @1000nM) of 16%, a difference in %Control versus compound Ib at 1 µM ([2]; @1000nM) of 6% and a remaining binding at 1 µM ([2]; @1000nM, read-out: %Control) of 100%. It also gave a remaining binding at 1 µM ([2]; read-out: %Control @1000nM) of 100%, a difference in %Control from reference compound Ib at 1 µM (ABL2; @1000nM) of 48% and a remaining binding at 1 µM (ABL2; @1000nM, read-out: %Control) of 89%. For the same molecule, the remaining binding at 1 µM (ABL2; read-out: %Control @1000nM) was 89%, the difference in % of control versus compound Ib at 1 µM (EGFR(L858R,T790M); @1000nM) was 49% and the remaining binding at 1 µM (EGFR(L858R,T790M); @1000nM, read-out: %Control) was 59%. The remaining binding at 1 µM (EGFR(L858R,T790M); read-out: %Control @1000nM) was 59%, the difference in %Control from compound Ib at 1 µM (ABL1-phosphorylated; @1000nM) was -5% and the remaining binding at 1 µM (ABL1-phosphorylated; @1000nM, read-out: %Control) was 55%. For the same molecule, the remaining binding at 1 µM (ABL1-phosphorylated; read-out: %Control @1000nM) was 55%, the difference in %Control vs compound Ib at 1 µM (FGFR2; @1000nM) was 35% and the remaining binding at 1 µM (FGFR2; @1000nM, read-out: %Control) was 74%. It also gave a remaining binding at 1 µM (FGFR2; read-out: %Control @1000nM) of 74%, a remaining binding at 1 µM (YES; @1000nM, read-out: %Control) of 11% and a remaining binding at 1 µM (YES; read-out: %Control @1000nM) of 11%. For the same molecule, the difference in %Control versus compound Ib at 1 µM (EPHA1; @1000nM) was -6%, the remaining binding at 1 µM (EPHA1; @1000nM, read-out: %Control) was 66% and the remaining binding at 1 µM (EPHA1; read-out: %Control @1000nM) was 66%.
